Laboratory results: US8242280B2, “Fused ring heterocycle kinase modulators” (SGX Pharmaceuticals, Inc., priority 2007, dated 2012)

Assays:
Ba/F3 cells, ABL1 WT = Ba/F3 cells, ABL1 WT (Homo sapiens, UniProt P00519); test: 96-well XTT cell survival assay, Ba/F3 ABL1 WT; type: cell-based; details: 72 hours, read-out: ABL1 WT XTT [Ba/F3] IC50
Protocol: (§1) MV4-11 and THP cells were maintained in Iscove's Modified Dulbecco's Medium supplemented with 10% fetal bovine serum (FBS) and penicillin/streptomycin, Ba/F3 cells were maintained in RPMI 1640 supplemented with 10% FBS, penicillin/streptomycin and 5 ng/ml recombinant mouse IL-3.
(§2) Compounds were tested in the following assays in duplicate.
(§3) 96-well XTT assay: Cells (e.g. BaF3 315I, M351I, or E255K cells) were grown in growth media containing various concentrations of compounds (duplicates) on a 96-well plate for 72 hours at 37° C. The starting cell number was 5000-8000 cells per well and volume was 120 μl. At the end of the 72-hour incubation, 40 μl of XTT labeling mixture (50:1 solution of sodium 3′-[1-(phenylamino-carbonyl)-3,4-tetrazolium]-bis(4-methoxy-6-nitro)benzene sulfonic acid hydrate and Electron-coupling reagent: PMS (N-methyl dibenzopyrazine methyl sulfate) were added to each well of the plate. After an additional 2-6 hours of incubation at 37° C., the absorbance reading at 405 nm with background correction at 650 nm was measured with a spectrophotometer.

[1] = biological target: T1, unphosphorylated T315I Abl kinase domain (Mus musculus, UniProt P00520, T315I); test: c-Abl T315I 0P bioassay (pyruvate kinase/lactate dehydrogenase coupled enzyme assay); type: biochemical; details: zero phosphorylation state (0P), 10 μM ATP, read-out: AbI T315I 0P IC50
T1 construct: purified and unphosphorylated T315I Abl kinase domain; made in house; host or cells: E. coli BL21(DE3) (Codon+RIL or pSA0145 strain)
T1 sequence (P00520 242-493 T315I limits assumed): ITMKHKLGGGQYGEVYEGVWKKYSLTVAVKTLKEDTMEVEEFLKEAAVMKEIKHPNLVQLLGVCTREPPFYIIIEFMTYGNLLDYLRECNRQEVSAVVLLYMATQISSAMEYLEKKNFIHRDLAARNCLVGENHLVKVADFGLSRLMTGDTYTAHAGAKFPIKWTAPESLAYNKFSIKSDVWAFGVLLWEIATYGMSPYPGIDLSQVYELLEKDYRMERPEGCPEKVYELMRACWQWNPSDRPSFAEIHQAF
Text: Although the first of these examples uses the kinase domain of a mutant form of Abl T315I (“Abl T315I KD”), the kinase assays may use various forms of mutant and wild type enzymes, including, for example, the entire protein, the kinase domain, or a portion thereof (e.g. Abl Y393F). The kinases used in the assays may also be of varying phosphorylation states. In the c-Abl example, a mutant kinase at a zero phosphorylation state was used. c-Abl Pyruvate Kinase/Lactate Dehydrogenase Coupled Enzyme Assay
In the c-Abl Pyruvate Kinase (PK)/Lactate Dehydrogenase (LDH) Coupled Assay the protein kinase dependant phosphorylation of a substrate peptide was coupled to the oxidation of NADH. The oxidation of NADH to NAD+ was detected by monitoring a decrease in absorbance at 340 nm.
Materials: Abl substrate peptide=EAIYAAPFAKKK (SEQ ID NO: 1)—OH (Biopeptide, San Diego, Calif.); pNADH (Sigma Cat#N-8129, FW=709.4); 2M MgC12; 1M HEPES buffer, pH 7.5; Phosphoenolpyruvate (PEP) (Sigma Cat#P-7002, FW=234); Lactate dehydrogenase (LDH) (Worthington Biochemical Cat#2756); Pyruvate Kinase (PK) (Sigma Cat#P-9136); ATP (Sigma Cat#A-3377, FW=551); Greiner 384-well UV star plate; and purified and unphosphorylated T315I Abl kinase domain.
Stock Solutions: 10 mM NADH (7.09 mg/ml in miliQH2O) made fresh daily; 10 mM Abl substrate peptide (13.4 mg/ml in miliQH2O) stored at −20° C.; 100 mM HEPES buffer, pH 7.5 (5 ml 1M stock+45 ml miliQH2O); 100 mM MgCl2 (5 ml 2M MgCl2+95 ml dH2O); 100 MM PEP (23.4 mg/ml in dH2O) stored at −20° C.; 10 mM ATP (5.51 mg/ml in dH2O) stored at −20° C. (diluted 50 μl into total of 10 ml miliQH2O daily=50 μM ATP working stock); 1000 U/ml PK (U/mg varies with lot) flash-frozen under liquid N2 and stored at −80° C.; and 1000 U/ml LDH (U/mg varies with lot) flash-frozen under liquid N2 and stored at −80° C.
Standard Assay Setup for 384-well format (50 μl reaction): 300 μM NADH; 10 mM MgCl2; 2 mM PEP; 45U/ml PK; 60 U/ml LDH; 200 μM Abl substrate peptide; 2.5 μl test compound (in DMSO); 2 μg/ml Abl kinase domain; 10 μM ATP; 100 mM HEPES buffer. Positive controls contained DMSO with no test compound. Negative controls contained 5 μl of 0.5M EDTA (50 mM in the assay). The dephosphorylated form of the c-Abl T315I mutant was used in the biochemical screening assays. The kinase reaction was initiated at time t=0 by the addition of ATP.
Activity was measured by following the time-dependent loss of NADH by absorbance spectroscopy at 340 nm. The linear portion of the resulting progress curve was then analyzed by linear regression to get the activity in absorbance units/time, reported as the slope of that best fit line (moles/unit time can be calculated from using molar extinction coefficient for NADH at 340 nm, 6250M^−1 cm^−1).
Data was evaluated using the equation: Z′=1−[3*(σ++σ−)/|μ+−μ−|](Zhang, et al., 1999 J Biomol Screening 4(2) 67-73), where μ denotes the mean and σ the standard deviation. The subscript designates positive or negative controls. The Z′ score for a robust screening assay should be ≧0.50. The typical threshold=μ+−3*σ+. Any value that falls below the threshold was designated a “hit”.
Dose response was analyzed using the equation: y=min+{(max−min)/(1+10^[compound]−logIC50)}, where y is the observed initial slope, max=the slope in the absence of inhibitor, min=the slope at infinite inhibitor, and the IC50 is the [compound] that corresponds to ½ the total observed amplitude (Amplitude=max−min).
To measure modulation, activation, or inhibition of Abl KD, a test compound was added to the assay at a range of concentrations. Inhibitors may inhibit Abl KD activity at an IC50 in the micromolar range, the nanomolar range, or, for example, in the subnanomolar range.
An open-reading frame for c-Abl was amplified from a Mus musculus (mouse) cDNA library prepared from freshly harvested mouse liver using a commercially available kit (invitrogen) by PCR using the following primers: […]
The c-Abl T315I KD (kinase domain) was purified as follows. […]

Ba/F3 cells, ABL1 T315I = Ba/F3 cells, ABL1 T315I (Homo sapiens, UniProt P00519, T315I, cells depend on it); test: 96-well XTT cell survival assay, Ba/F3 ABL1 T315I; type: cell-based; details: 72 hours, read-out: ABL1 T315I XTT [Ba/F3] IC50
Protocol: as §1, §2, §3

Row | Structure (SMILES) | GI50 (Ba/F3 cells, ABL1 WT) [nM] | IC50 [1] [nM] | GI50 (Ba/F3 cells, ABL1 T315I) [nM]
1 | COc1ccccc1-c1c[nH]c2ncc(-c3cccc(C(C(=O)N4CCC[C@@H]4CO)N4CCNCC4)c3)cc12 (stereo partly drawn) | > 1000 | < 50 | > 1000
2 | COc1ccccc1-c1c[nH]c2ncc(-c3cccc(C(N)CC(=O)N(C)C)c3)cc12 (stereo not drawn) | > 1000 | < 50 | > 1000
3 | COc1ccccc1-c1c[nH]c2ncc(-c3cccc(C(N)CC(=O)N(C)CCN(C)C)c3)cc12 (stereo not drawn) | > 1000 | < 50 | > 1000
4 | COc1ccccc1-c1n[nH]c2ncc(-c3cccc([C@H](O)[C@@H](O)C(C)C)c3)cc12 | < 1000 | < 50 | < 1000
5 | CC[C@H](O)[C@@H](O)c1cccc(-c2cnc3[nH]nc(-c4ccccc4OC)c3c2)c1 | < 1000 | < 50 | < 1000
6 | CC[C@@H]1OCO[C@H]1c1cccc(-c2cnc3[nH]nc(-c4ccccc4OC)c3c2)c1 | > 1000 | < 50 | > 1000
7 | COc1ccccc1-c1n[nH]c2ncc(-c3cccc([C@@H](O)[C@H](O)C(C)C)c3)cc12 | < 1000 | < 50 | < 1000
8 | COc1ccccc1-c1n[nH]c2ncc(-c3cccc([C@H]4OCO[C@@H]4C(C)C)c3)cc12 | > 1000 | < 50 | > 1000
9 | COc1ccccc1-c1n[nH]c2ncc(-c3cccc([C@H](O)[C@H](O)C(C)C)c3)cc12 | < 1000 | < 50 | < 1000
10 | COc1ccccc1-c1n[nH]c2ncc(-c3cccc([C@@H]4OCO[C@@H]4C(C)C)c3)cc12 | > 1000 | < 50 | > 1000
11 | COc1ccccc1-c1c[nH]c2ncc(-c3cccc(C(O)C(=O)N(C)Cc4ccnn4C)c3)cc12 (stereo not drawn) | < 1000 | < 50 | < 1000
12 | COc1ccccc1-c1n[nH]c2ncc(-c3cccc(C(O)C(=O)N(C)C)n3)cc12 (stereo not drawn) | > 1000 | < 50 | > 1000
13 | COc1ccccc1-c1n[nH]c2ncc(-c3cccc(C(O)C(=O)N(C)CCN(C)C)n3)cc12 (stereo not drawn) | > 1000 | < 50 | > 1000
14 | COc1ccccc1-c1c[nH]c2ncc(-c3cccc(C(O)C(=O)N(C)C)n3)cc12 (stereo not drawn) | > 1000 | < 50 | > 1000
15 | COc1ccccc1-c1c[nH]c2ncc(-c3cccc(C(O)C(=O)N(C)CCN(C)C)n3)cc12 (stereo not drawn) | > 1000 | < 50 | > 1000
16 | COc1ccccc1-c1c[nH]c2ncc(-c3cccc(C(O)C(=O)N(C)CCNC4CC4)c3)cc12 (stereo not drawn) | < 1000 | < 50 | < 1000
17 | COc1ccccc1-c1c[nH]c2ncc(-c3cncc(C(O)C(=O)N(C)C(C)C)c3)cc12 (stereo not drawn) | > 1000 | < 50 | < 1000
18 | CCN(C)C(=O)C(O)c1cncc(-c2cnc3[nH]cc(-c4ccccc4OC)c3c2)c1 (stereo not drawn) | < 1000 | < 50 | < 1000
19 | COc1ccccc1-c1c[nH]c2ncc(-c3cncc(C(O)C(=O)N(C)Cc4ccnn4C)c3)cc12 (stereo not drawn) | < 1000 | < 50 | < 1000
20 | COc1ccccc1-c1c[nH]c2ncc(-c3cc(C(O)C(=O)N(C)C)ncn3)cc12 (stereo not drawn) | > 1000 | 50 to 500 | > 1000
21 | CC[C@H](O)[C@@H](O)c1cccc(-c2cnc3[nH]cc(-c4ccccc4OC)c3c2)c1 | < 1000 | < 50 | < 1000
22 | COc1ccccc1-c1c[nH]c2ncc(-c3ccnc(C(O)C(=O)N(C)C)c3)cc12 (stereo not drawn) | > 1000 | < 50 | > 1000
23 | COc1ccccc1-c1c[nH]c2ncc(-c3cccc(C(F)C(=O)N(C)C)c3)cc12 (stereo not drawn) | > 1000 | < 50 | > 1000
24 | COc1ccccc1-c1c[nH]c2ncc(-c3cc(C(O)C(=O)N(C)C)ccn3)cc12 (stereo not drawn) | > 1000 | < 50 | > 1000
25 | COc1ccccc1-c1c[nH]c2ncc(-c3ccnc(C(O)C(=O)N(C)C)n3)cc12 (stereo not drawn) | > 1000 | 50 to 500 | > 1000
